From PMC11772769, “Selective cargo and membrane recognition by SNX17 regulates its interaction with Retriever” (EMBO Reports, 2024)
Where no end group is shown, it is not given here.

How the values were obtained:
[1] = target: T1, SNX17FERM-CT (amino acids 109-470) (Homo sapiens, UniProt Q15036); assay: Fluorescence anisotropy binding of 5-FAM cargo peptides to SNX17FERM-CT
T1 construct: His-Sumo3 (N, cleaved yes); made in house; host or cells: Escherichia coli BL21(DE3)
T1 sequence (Q15036 109-470): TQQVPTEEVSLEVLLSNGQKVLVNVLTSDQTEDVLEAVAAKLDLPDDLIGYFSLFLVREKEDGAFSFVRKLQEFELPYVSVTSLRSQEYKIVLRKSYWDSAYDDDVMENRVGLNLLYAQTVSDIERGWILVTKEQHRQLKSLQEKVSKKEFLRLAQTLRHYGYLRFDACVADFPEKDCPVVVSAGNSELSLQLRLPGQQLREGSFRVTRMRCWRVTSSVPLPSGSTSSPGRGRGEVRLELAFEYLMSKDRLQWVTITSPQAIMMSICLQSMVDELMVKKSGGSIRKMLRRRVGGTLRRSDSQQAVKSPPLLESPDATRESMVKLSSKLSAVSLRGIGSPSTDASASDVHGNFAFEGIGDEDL
Experimental: (§1) Lyophilized peptides were resuspended in 100 mM Hepes pH 8.0 at 5 mg/ml and further diluted in the assay buffer (50 mM Hepes pH 7.5, 300 mM NaCl, and 1 mM DTT). […] The mixture was incubated at 25 °C for at least 30 min and then transferred to 96 Flat Black plates. Fluorescence anisotropy was measured at 25 °C using Spark 10M Plate Reader (Tecan) with a 485/20 excitation filter and a 535/35 emission filter. The dissociation constants were calculated in GraphPad Prism by nonlinear regression fitting of the experimental data to a one-site total binding model. The final KD measurement is the mean of at least two independent experiments.

MBP-SNX17N459A+F462A = target: T2, MBP-SNX17N459A+F462A (Homo sapiens, UniProt Q15036, F462A/N459A); assay: Fluorescence anisotropy binding of 5-FAM peptides to MBP-SNX17 N459A+F462A
T2 construct: M protein marker, R Retriever complex, FL full-length; His (N, cleaved yes); made in house; host or cells: Escherichia coli BL21(DE3)
T2 sequence (Q15036 1-470 N459A/F462A): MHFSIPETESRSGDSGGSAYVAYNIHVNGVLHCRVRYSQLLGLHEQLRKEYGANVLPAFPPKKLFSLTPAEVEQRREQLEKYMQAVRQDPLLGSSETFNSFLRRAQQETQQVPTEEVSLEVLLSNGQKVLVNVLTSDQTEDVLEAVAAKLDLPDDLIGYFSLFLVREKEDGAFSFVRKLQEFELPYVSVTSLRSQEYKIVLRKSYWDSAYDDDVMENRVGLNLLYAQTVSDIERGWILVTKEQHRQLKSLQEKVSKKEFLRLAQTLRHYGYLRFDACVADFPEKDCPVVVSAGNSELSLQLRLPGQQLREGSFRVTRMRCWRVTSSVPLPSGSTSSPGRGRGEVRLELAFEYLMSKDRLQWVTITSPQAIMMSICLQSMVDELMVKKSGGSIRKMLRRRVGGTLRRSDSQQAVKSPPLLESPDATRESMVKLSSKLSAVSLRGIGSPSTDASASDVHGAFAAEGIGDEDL
Experimental: as §1

Q: How did the Kd [1] turn out when KLITYDNPAYEGID [L2 14-mer] was run?
A: 0.64 µM

Q: And the Kd (MBP-SNX17N459A+F462A)?
A: 0.6 ± 0.1 µM
